Measured values from patent publication US12492181B2, “Gem-disubstituted piperidine melanocortin subtype-2 receptor (MC2R) antagonists and uses thereof” (Crinetics Pharmaceuticals, Inc., priority 2019, dated 2025).
pKi: −log10 of the molar value.

Target: T1, hMC2 receptor (crude hMC2R membranes from CRE-bla-CHO-K1 cells stably expressing hMC2 receptor and hMRAP accessory protein) (Homo sapiens, UniProt Q01718)
T1 construct: crude membrane fractions
Test: hMC2 membrane binding assay ([125I]ACTH (1-39) Tyr23, SPA)
Conditions: displacement of 0.2 nM [125I]ACTH (1-39) Tyr23 from hMC2R membranes, 1.5 hours at room temperature; read-out: MC2R binding potency
Method in brief: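 Ki values come from non-linear regression of SPA scintillation counts, with compounds displacing [125I]ACTH(1-39) Tyr23. Membranes come from CRE-bla-CHO-K1 cells stably expressing hMC2 receptor together with hMRAP. They are preincubated with WGA-coated PVT SPA beads in 50 mM HEPES pH 7.4 with 0.20% BSA, Mg2+, Ca2+ and protease inhibitors.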

T1 sequence (Q01718 whole entry): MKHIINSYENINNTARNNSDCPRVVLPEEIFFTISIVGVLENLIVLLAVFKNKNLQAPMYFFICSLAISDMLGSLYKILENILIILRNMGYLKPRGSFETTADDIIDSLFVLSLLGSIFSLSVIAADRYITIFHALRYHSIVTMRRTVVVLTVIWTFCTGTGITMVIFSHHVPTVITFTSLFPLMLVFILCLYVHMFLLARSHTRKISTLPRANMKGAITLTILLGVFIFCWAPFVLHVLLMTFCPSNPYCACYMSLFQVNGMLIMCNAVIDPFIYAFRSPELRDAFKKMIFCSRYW
T1 sequence (Q8TCY5 whole entry partner): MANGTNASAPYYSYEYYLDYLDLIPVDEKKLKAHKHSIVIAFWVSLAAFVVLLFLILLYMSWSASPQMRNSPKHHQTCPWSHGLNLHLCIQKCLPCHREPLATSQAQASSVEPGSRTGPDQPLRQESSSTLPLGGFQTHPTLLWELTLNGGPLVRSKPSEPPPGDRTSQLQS

Row | SMILES | pKi
1 | CCOc1ncccc1-c1ncc(C2(C(=O)N[C@H]3CCN(C)C3)CCN(c3ccc(C(F)(F)F)nc3C#N)CC2)cc1F [Compound 1-110, 1-[2-cyano-6-(trifluoromethyl)pyridin-3-yl]-4-{2′-ethoxy-3-fluoro-[2,3′-bipyridin]-5-yl}-N-[(3S)-1-methylpyrrolidin-3-yl]piperidine-4-carboxamide] | > 8.00
2 | CCOc1ncccc1-c1ccc(C2(C(=O)NC[C@H](C)N(C)C)CCN(c3ccc(C(F)(F)F)cc3C#N)CC2)cn1 [Compound 1-332, 1-[2-cyano-4-(trifluoromethyl)phenyl]-N-[(2S)-2-(dimethylamino)propyl]-4-{2′-ethoxy-[2,3′-bipyridin]-5-yl}piperidine-4-carboxamide] | > 8.00
3 | CCOc1ccccc1-c1ccc(C2(NC(=O)CCN(C)C)CCN(c3ccc(C(F)(F)F)cc3C#N)CC2)cn1 [Compound 2-36, N-{1-[2-cyano-4-(trifluoromethyl)phenyl]-4-[6-(2-ethoxyphenyl)pyridin-3-yl]piperidin-4-yl}-3-(dimethylamino)propanamide] | > 8.00
4 | CNC[C@H](C)NC(=O)C1(c2ccc(-c3cccn3C)nc2)CCN(c2ccc(C(F)(F)F)cc2C#N)CC1 [Compound 1-316, 1-[2-cyano-4-(trifluoromethyl)phenyl]-4-[6-(1-methyl-1H-pyrrol-2-yl)pyridin-3-yl]-N-[(2S)-1-(methylamino)propan-2-yl]piperidine-4-carboxamide] | > 8.00
5 | CNC[C@H](C)NC(=O)C1(c2ccc(-c3cccn3C)nc2)CCN(c2ccc(C(F)(F)F)cc2F)CC1 [Compound 1-298, 1-[2-fluoro-4-(trifluoromethyl)phenyl]-4-[6-(1-methyl-1H-pyrrol-2-yl)pyridin-3-yl]-N-[(2S)-1-(methylamino)propan-2-yl]piperidine-4-carboxamide] | > 8.00
6 | COc1ncccc1-c1ncc(C2(C(=O)N[C@H]3CCN(C)C3)CCN(c3ccc(C(F)(F)F)nc3C#N)CC2)cc1F [Compound 1-133, 1-[2-cyano-6-(trifluoromethyl)pyridin-3-yl]-4-{3-fluoro-2′-methoxy-[2,3′-bipyridin]-5-yl}-N-[(3S)-1-methylpyrrolidin-3-yl]piperidine-4-carboxamide] | > 8.00
7 | CCOc1ncccc1-c1ncc(C2(C(=O)N[C@@H]3CCN(C)C3)CCN(c3ccc(C(F)(F)F)cc3C#N)CC2)cn1 [Compound 1-107, 1-[2-cyano-4-(trifluoromethyl)phenyl]-4-[2-(2-ethoxypyridin-3-yl)pyrimidin-5-yl]-N-[(3R)-1-methylpyrrolidin-3-yl]piperidine-4-carboxamide] | > 8.00
8 | CCOc1ccccc1-c1ccc(C2(C(=O)NC3CN(C)C3)CCN(c3ccc(C(F)(F)F)cc3C#N)CC2)nn1 [Compound 1-136, 1-[2-cyano-4-(trifluoromethyl)phenyl]-4-[6-(2-ethoxyphenyl)pyridazin-3-yl]-N-(1-methylazetidin-3-yl)piperidine-4-carboxamide] | > 8.00
9 | COc1ncccc1-c1ccc(C2(NC(=O)C3CN(C)C3)CCN(c3ccc(C(F)(F)F)cc3C#N)CC2)cn1 [Compound 2-40, N-{1-[2-cyano-4-(trifluoromethyl)phenyl]-4-{2′-methoxy-[2,3′-bipyridin]-5-yl}piperidin-4-yl}-1-methylazetidine-3-carboxamide] | > 8.00
10 | CN1CC[C@H](NC(=O)C2(c3ccc(-c4cccn4C)nc3)CCN(c3ccc(C(F)(F)F)cc3C#N)CC2)C1 [Compound 1-100, 1-[2-cyano-4-(trifluoromethyl)phenyl]-4-[6-(1-methyl-1H-pyrrol-2-yl)pyridin-3-yl]-N-[(3S)-1-methylpyrrolidin-3-yl]piperidine-4-carboxamide] | > 8.00
11 | COc1ccccc1-c1ccc(C2(C(=O)NCC3CN(C)C3)CCN(c3ccc(C(F)(F)F)cc3C#N)CC2)cn1 [Compound 1-211, 1-[2-cyano-4-(trifluoromethyl)phenyl]-4-[6-(2-methoxyphenyl)pyridin-3-yl]-N-[(1-methylazetidin-3-yl)methyl]piperidine-4-carboxamide] | > 8.00
12 | CCOc1ncccc1-c1ccc(C2(NC(=O)CCN)CCN(c3ccc(C(F)(F)F)cc3C#N)CC2)cc1 [Compound 2-3, 3-amino-N-{1-[2-cyano-4-(trifluoromethyl)phenyl]-4-[4-(2-ethoxypyridin-3-yl)phenyl]piperidin-4-yl}propanamide] | 7.00 to 8.00
13 | CCn1cccc1-c1ccc(C2(C(=O)N[C@H]3CCN(C)C3)CCN(c3ccc(C(F)(F)F)cc3C#N)CC2)cn1 [Compound 1-208, 1-[2-cyano-4-(trifluoromethyl)phenyl]-4-[6-(1-ethyl-1H-pyrrol-2-yl)pyridine-3-yl]-N-[(3S)-1-methylpyrrolidin-3-yl]piperidine-4-carboxamide] | > 8.00
14 | COc1ccccc1-c1ccc(C2(C(=O)NC[C@@H]3C[C@@H](F)CN3)CCN(c3ccc(C(F)(F)F)cc3C#N)CC2)cn1 [Compound 1-247, 1-[2-cyano-4-(trifluoromethyl)phenyl]-N-{[(2S,4R)-4-fluoropyrrolidin-2-yl]methyl}-4-[6-(2-methoxyphenyl)pyridin-3-yl]piperidine-4-carboxamide] | > 8.00
15 | COc1c(F)cc(F)cc1-c1ccc(C2(C(=O)N[C@@H]3CCN(C)C3)CCN(c3ccc(C(F)(F)F)cc3C#N)CC2)cn1 [Compound 1-87, 1-[2-cyano-4-(trifluoromethyl)phenyl]-4-[6-(3,5-difluoro-2-methoxyphenyl)pyridin-3-yl]-N-[(3R)-1-methylpyrrolidin-3-yl]piperidine-4-carboxamide] | > 8.00
16 | CCOc1ccccc1-c1ccc(C2(C(=O)N[C@@H]3CCN(C)C3)CCN(c3ccc(C(F)(F)F)cc3C#N)CC2)cn1 [Compound 1-31, 1-[2-cyano-4-(trifluoromethyl)phenyl]-4-[6-(2-ethoxyphenyl)pyridin-3-yl]-N-[(3R)-1-methylpyrrolidin-3-yl]piperidine-4-carboxamide] | > 8.00
17 | CNCCNC(=O)C1(c2cnc(-c3cccnc3OC)c(F)c2)CCN(c2ccc(C(F)(F)F)cc2Cl)CC1 [Compound 1-303, 1-[2-chloro-4-(trifluoromethyl)phenyl]-4-{3-fluoro-2′-methoxy-[2,3′-bipyridin]-5-yl}-N-[2-(methylamino)ethyl]piperidine-4-carboxamide] | > 8.00
18 | CCN(C)CCNC(=O)C1(c2ccc(-c3cccn3C)nc2)CCN(c2ccc(C(F)(F)F)cc2C#N)CC1 [Compound 1-265, 1-[2-cyano-4-(trifluoromethyl)phenyl]-N-{2-[ethyl(methyl)amino]ethyl}-4-[6-(1-methyl-1H-pyrrol-2-yl)pyridin-3-yl]piperidine-4-carboxamide] | > 8.00
19 | CN1CC[C@@H](NC(=O)C2(c3ccc(-c4cccc5ccoc45)nc3)CCN(c3ccc(C(F)(F)F)cc3C#N)CC2)C1 [Compound 1-54, 4-[6-(1-benzofuran-7-yl)pyridin-3-yl]-1-[2-cyano-4-(trifluoromethyl)phenyl]-N-[(3R)-1-methylpyrrolidin-3-yl]piperidine-4-carboxamide] | 7.00 to 8.00
20 | CCOc1ccccc1-c1ccc(C2(C(=O)N[C@H]3CCN(C)C3)CCN(c3ccc(F)cc3C#N)CC2)cn1 [Compound 1-96, 1-(2-cyano-4-fluorophenyl)-4-[6-(2-ethoxyphenyl)pyridin-3-yl]-N-[(3S)-1-methylpyrrolidin-3-yl]piperidine-4-carboxamide] | > 8.00
